Measured values as given in US11999727B2 (Tango Therapeutics, Inc., priority 2020, dated 2024).

What was measured:
PRMT5 [1] = target: T1, PRMT5 (Homo sapiens, UniProt O14744); experiment: PRMT5 biochemical IC50 assay with SAM as cofactor; details: PRMT5, SAM as cofactor; read-out: SAM IC50
T1 construct: purchased Viva (custom protein)

PRMT5 [2] = target: T1, PRMT5; experiment: PRMT5 biochemical IC50 assay with no cofactor; details: PRMT5, no cofactor
Excerpt: Table 1 indicates IC50 values (μM) against PRMT5 for exemplary compounds in the presence of SAM as cofactor, with no cofactor, and with MTA as cofactor, respectively (columns 4-6). […] Ki values can be calculated from the IC50 values as described in the Examples section. As detailed in the Examples section, for the assay performed in the presence of SAM, IC50=Ki×1.5 (Ki=IC50/1.5).

PRMT5 [3] = target: T1, PRMT5; experiment: PRMT5 biochemical IC50 assay with MTA as cofactor; details: PRMT5, MTA as cofactor; read-out: MTA IC50
[4] = test system: HAP1 MTAP-intact cell line; experiment: SDMA in-cell western assay, HAP1 MTAP-intact; type: cell-based; details: Homo sapiens, HAP1, SDMA in-cell western, HAP1 MTAP-intact; read-out: MTAP HAP1 intact IC50
In short: (§1)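 MTAP-null vs endogenous-MTAP HAP1 isogenic cells; in-cell western SDMA readout; IC50 per line.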

[5] = test system: HAP1 MTAP-deleted cell line; experiment: SDMA in-cell western assay, HAP1 MTAP-deleted; type: cell-based; details: for IC50: Homo sapiens, HAP1, SDMA in-cell western, HAP1 MTAP-deleted; for MTAP intact/deleted ratio: SDMA in-cell western
In short: as §1

[6] = test system: HAP1 MTAP-deleted cell line; experiment: Viability assay, MTAP-deleted cell line; type: cell-based; details: Homo sapiens, read-out: HAP1 MTAP deleted viability
Excerpt: Table 1 additionally indicates IC50 values in a viability assay for the MTAP-deleted cell line (column 10), indicating the effect of treatment with compound on cell survival.

[7] = read-out: HAP 1 MTAP deleted IC50
[8] = IC50 ratio HAP1 MTAP-intact / HAP1 MTAP-deleted
[9] = HAP1, viability IC50, MTAP-deleted cell line
[10] = read-out: HAP1 MTAP deleted IC50
[11] = IC50 ratio HAP1 MTAP-intact vs HAP1 MTAP-deleted
[12] = HAP1, viability assay, MTAP-deleted cell line
[13] = HAP1, viability assay, HAP1 MTAP-deleted
[14] = read-out: No Cofactor/ rel IC50
[15] = HAP1, viability, HAP1 MTAP-deleted cell line

T1 sequence (O14744 whole entry): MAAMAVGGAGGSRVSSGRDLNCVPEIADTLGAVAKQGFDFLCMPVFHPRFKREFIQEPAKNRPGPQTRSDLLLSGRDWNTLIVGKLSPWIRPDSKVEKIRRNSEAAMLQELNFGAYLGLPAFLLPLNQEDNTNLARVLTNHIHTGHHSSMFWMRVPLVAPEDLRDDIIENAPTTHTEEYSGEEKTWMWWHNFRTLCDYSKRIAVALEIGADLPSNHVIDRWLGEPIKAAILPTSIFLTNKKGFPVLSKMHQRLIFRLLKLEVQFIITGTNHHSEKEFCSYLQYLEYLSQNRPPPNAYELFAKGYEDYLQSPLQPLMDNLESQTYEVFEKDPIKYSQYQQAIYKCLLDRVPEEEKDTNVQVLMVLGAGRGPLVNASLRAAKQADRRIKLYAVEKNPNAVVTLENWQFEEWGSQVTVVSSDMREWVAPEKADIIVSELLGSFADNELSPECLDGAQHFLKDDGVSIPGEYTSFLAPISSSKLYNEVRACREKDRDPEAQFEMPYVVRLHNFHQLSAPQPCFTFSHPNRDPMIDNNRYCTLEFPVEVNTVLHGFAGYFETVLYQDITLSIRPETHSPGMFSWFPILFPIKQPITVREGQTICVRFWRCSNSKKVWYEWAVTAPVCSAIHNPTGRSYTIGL
T1 sequence (Q9BQA1 whole entry partner): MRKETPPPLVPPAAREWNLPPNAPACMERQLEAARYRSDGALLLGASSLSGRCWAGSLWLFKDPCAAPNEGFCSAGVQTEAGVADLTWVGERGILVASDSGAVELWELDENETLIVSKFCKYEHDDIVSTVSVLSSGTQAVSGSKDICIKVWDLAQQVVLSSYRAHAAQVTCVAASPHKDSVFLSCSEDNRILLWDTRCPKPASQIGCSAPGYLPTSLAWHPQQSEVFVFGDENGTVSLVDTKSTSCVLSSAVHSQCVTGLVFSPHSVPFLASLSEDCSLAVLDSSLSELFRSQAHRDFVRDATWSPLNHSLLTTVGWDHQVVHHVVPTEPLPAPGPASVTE

| Compound | IC50 (PRMT5 [1]) [µM] | IC50 (PRMT5 [2]; read-out: No Cofactor/rel IC50) [µM] | IC50 (PRMT5 [3]) [µM] | IC50 [4] [µM] | IC50 [5, 7] [µM] | IC50 [5, 10] [µM] | IC50 (PRMT5 [2]; [14]) [µM] | MTAP intact/deleted ratio [5, 8] | IC50 [6, 9] [µM] | MTAP intact/deleted ratio [5, 11] | IC50 [6, 12] [µM] | IC50 [6, 13] [µM] | IC50 [6, 15] [µM] |
| --- | --- | --- | --- | --- | --- | --- | --- | --- | --- | --- | --- | --- | --- |
| C[C@@H]1CC[C@@H](c2cccc(Br)c2)N(C(=O)C(=O)Nc2cncc(C(N)=O)c2)C1 (racemic) [Compound 601, 5-(2-(2-(3-bromophenyl)-5-methylpiperidin-1-yl)-2-oxoacetamido)nicotinamide] | 0.05 to 0.5 | 0.05 to 0.5 | 0.05 to 0.5 | > 1 | < 0.1 | – | – | A (an IC50 ratio greater than or equal to 10 fold) | 1 to 10 | – | – | – | – |
| C[C@@H]1CC[C@@H](c2cc(F)c(F)c(Cl)c2)N(C(=O)C(=O)Nc2cncc(C(N)=O)c2)C1 (single isomer, unassigned) [Compound 834] | 0.05 to 0.5 | 0.05 to 0.5 | < 0.05 | > 1 | – | 0.1 to 1 | – | A (an IC50 ratio greater than or equal to 10 fold) | – | – | – | 1 to 10 | – |
| CNc1ccc([C@@H]2CC[C@@H](C)CN2C(=O)C(=O)Nc2cnc(OC)c(C(N)=O)c2)cn1 (single isomer, unassigned) [Compound 448] | > 0.5 | > 0.5 | > 0.5 | > 1 | – | > 1 | – | C (an IC50 ratio of less than 3 fold) | – | – | > 10 | – | – |
| CCc1cc(NC(=O)C(=O)N2C[C@@H](C)CC[C@@H]2c2ccc(F)cc2)cnc1C [Compound 779, N-(5-ethyl-6-methyl-3-pyridyl)-2-[(2R,5S)-2-(4-fluorophenyl)-5-methyl-1-piperidyl]-2-oxo-acetamide] | 0.05 to 0.5 | 0.05 to 0.5 | < 0.05 | > 1 | – | 0.1 to 1 | – | A (an IC50 ratio greater than or equal to 10 fold) | – | – | – | 1 to 10 | – |
| CCc1cc(NC(=O)C(=O)N2C[C@@H](C)CC[C@@H]2c2ccc3c(c2)CNC3=O)cnc1N (single isomer, unassigned) [Compound 696, N-(6-amino-5-ethylpyridin-3-yl)-2-(5-methyl-2-(1-oxoisoindolin-5-yl)piperidin-1-yl)-2-oxoacetamide] | 0.05 to 0.5 | < 0.05 | < 0.05 | > 1 | < 0.1 | – | – | A (an IC50 ratio greater than or equal to 10 fold) | 1 to 10 | – | – | – | – |
| C[C@@H]1CC[C@@H](c2ccc3c(c2)OCC3)N(C(=O)C(=O)Nc2cncc(C(N)=O)c2)C1 (racemic) [Compound 405, rac-5-{2-[(2R,5S)-2-(2,3-Dihydro-1-benzofuran-6-yl)-5-methylpiperidin-1-yl]-2-oxoacetamido}pyridine-3-carboxamide] | 0.05 to 0.5 | 0.05 to 0.5 | 0.05 to 0.5 | > 1 | – | < 0.1 | – | A (an IC50 ratio greater than or equal to 10 fold) | – | – | 1 to 10 | – | – |
| Cc1cc(NC(=O)C(=O)N2CC(C)(C)CCC2c2ccccc2)cnc1N (racemic) [Compound 56, N-(6-amino-5-methylpyridin-3-yl)-2-(5,5-dimethyl-2-phenylpiperidin-1-yl)-2-oxoacetamide] | 0.05 to 0.5 | – | 0.05 to 0.5 | 0.1 to 1 | < 0.1 | – | 0.05 to 0.5 | B (an IC50 ratio greater than or equal to 3 fold but lower than 10 fold) | – | – | 1 to 10 | – | – |
| C[C@@H]1CC[C@@H](c2ccccc2)N(C(=O)C(=O)Nc2cncc(C(N)=O)c2)[C@H]1C (racemic) [Compound 181, rac-5-[[2-[(2S,3R,6S)-2,3-dimethyl-6-phenyl-1-piperidyl]-2-oxo-acetyl]amino]pyridine-3-carboxamide] | 0.05 to 0.5 | 0.05 to 0.5 | < 0.05 | > 1 | – | 0.1 to 1 | – | A (an IC50 ratio greater than or equal to 10 fold) | – | – | 1 to 10 | – | – |
| O=C(Nc1cncc(CO)c1)C(=O)N1CCCCC1c1ccccc1 (stereo not drawn) [Compound 136, N-(5-(hydroxymethyl)pyridin-3-yl)-2-oxo-2-(2-phenylpiperidin-1-yl)acetamide] | > 0.5 | – | > 0.5 | > 1 | > 1 | – | > 0.5 | C (an IC50 ratio of less than 3 fold) | – | – | > 10 | – | – |
| Cc1cc(NC(=O)C(=O)N2CC(C)CCC2C2CNC(=O)C2)cnc1N (stereo not drawn) [Compound 210, N-(6-amino-5-methylpyridin-3-yl)-2-(5-methyl-2-(5-oxopyrrolidin-3-yl)piperidin-1-yl)-2-oxoacetamide] | > 0.5 | 0.05 to 0.5 | 0.05 to 0.5 | > 1 | – | > 1 | – | B (an IC50 ratio greater than or equal to 3 fold but lower than 10 fold) | – | – | > 10 | – | – |

Continued, in another order:

| IC50 (PRMT5 [1]) [µM] | IC50 (PRMT5 [2]; read-out: No Cofactor/rel IC50) [µM] | IC50 (PRMT5 [3]) [µM] | IC50 [4] [µM] | IC50 [5, 7] [µM] | IC50 [5, 10] [µM] | IC50 (PRMT5 [2]; [14]) [µM] | Compound | MTAP intact/deleted ratio [5, 8] | IC50 [6, 9] [µM] | MTAP intact/deleted ratio [5, 11] | IC50 [6, 12] [µM] | IC50 [6, 13] [µM] | IC50 [6, 15] [µM] |
| --- | --- | --- | --- | --- | --- | --- | --- | --- | --- | --- | --- | --- | --- |
| 0.05 to 0.5 | 0.05 to 0.5 | 0.05 to 0.5 | 0.1 to 1 | – | < 0.1 | – | Cc1cc(NC(=O)C(=O)N2C[C@H](C)CC[C@H]2c2ccc(N3CCN(C)CC3)cc2)cnc1N (racemic) [Compound 1105, rac-N-(6-Amino-5-methyl-3-pyridyl)-2-[(2R,5S)-5-methyl-2-[4-(4-methylpiperazin-1-yl)phenyl]-1-piperidyl]-2-oxo-acetamide] | – | – | A (an IC50 ratio greater than or equal to 10 fold) | < 1 | – | – |
| 0.05 to 0.5 | 0.05 to 0.5 | < 0.05 | < 0.1 | < 0.1 | – | – | Cc1cc(NC(=O)C(=O)N2C[C@@H](C)CC[C@@H]2c2ccc3sc(C(F)(F)F)nc3c2)cnc1N (single isomer, unassigned) [Compound 972] | B (an IC50 ratio greater than or equal to 3 fold but lower than 10 fold) | – | – | < 1 | – | – |
| < 0.05 | < 0.05 | < 0.05 | < 0.1 | – | < 0.1 | – | Cc1cc(NC(=O)C(=O)N2C[C@H](C)CC[C@H]2c2ccc3c(cnn3CCN(C)C)c2)cnc1N (single isomer, unassigned) [Compound 1182] | – | – | B (an IC50 ratio greater than or equal to 3 fold but lower than 10 fold) | < 1 | – | – |
| < 0.05 | – | < 0.05 | 0.1 to 1 | < 0.1 | – | < 0.05 | CCc1cc(NC(=O)C(=O)N2C[C@@H](C)CC[C@@H]2c2cccc(C3CCN(C)CC3)c2)cnc1N [Compound 1363, N-(6-Amino-5-ethyl-3-pyridyl)-2-oxo-2-[(2R,5S)-5-methyl-2-[3-(1-methyl-4-piperidyl)phenyl]-1-piperidyl]acetamide] | A (an IC50 ratio greater than or equal to 10 fold) | – | – | – | – | < 1 |
| > 0.5 | > 0.5 | > 0.5 | > 1 | > 1 | – | – | C[C@@H]1CC[C@@H](c2cn[nH]c2)N(C(=O)C(=O)Nc2cncc(C(N)=O)c2)C1 (single isomer, unassigned) [Compound 970] | C (an IC50 ratio of less than 3 fold) | – | – | > 10 | – | – |
| > 0.5 | > 0.5 | > 0.5 | > 1 | – | > 1 | – | CNC(=O)c1ccc([C@@H]2CC[C@@H](C)CN2C(=O)C(=O)Nc2cnc(N)c(C)c2)s1 (single isomer, unassigned) [Compound 849] | C (an IC50 ratio of less than 3 fold) | – | – | – | > 10 | – |
| 0.05 to 0.5 | – | < 0.05 | < 0.1 | < 0.1 | – | < 0.05 | CCc1cc(NC(=O)C(=O)N2C[C@@H](C)CC[C@@H]2c2ccc3sc([C@@H](C)N(C)C)nc3c2)cnc1N (single isomer, unassigned) [Compound 1316] | A (an IC50 ratio greater than or equal to 10 fold) | – | – | – | – | < 1 |
| 0.05 to 0.5 | – | < 0.05 | < 0.1 | < 0.1 | – | 0.05 to 0.5 | CCc1cc(NC(=O)C(=O)N2C[C@H](C)C(F)(F)C[C@H]2c2ccc3[nH]ncc3c2)cnc1N (single isomer, unassigned) [Compound 1357, N-(6-amino-5-ethylpyridin-3-yl)-2-(4,4-difluoro-2-(1H-indazol-5-yl)-5-methylpiperidin-1-yl)-2-oxoacetamide] | A (an IC50 ratio greater than or equal to 10 fold) | – | – | – | – | < 1 |
